Legend:
[1] = system: rat hepatocytes in comparison to rat hepatic stellate cells; assay: Cell attachment (protein assay): gliotoxin doses killing rat hepatocytes versus hepatic stellate cells; assay type: cell-based; conditions: attachment after four hours, in vitro
Description: Rat hepatocytes were isolated by collagenase perfusion essentially as previously described. (Harvey et al., Biochemical J., (1998) 331:273-281). Hepatocytes were cultured as outlined for hepatic stellate cells except that they were initially seeded onto collagen coated plates in William's medium E supplemented with 10% fetal calf serum and 1 μg/mL insulin for the first 2 hours.
Cells were treated with gliotoxin dissolved in DMSO vehicle (added to medium from a 2000-fold molar concentrated stock). Control cells received DMSO vehicle only (i.e., 0.05% vol/vol). All other additions to culture medium were made from concentrated stocks dissolved in DMSO or by direct addition to culture medium. Protein contents of wells were determined using the Lowry assay (Lowry et al., J. Biol. Chem., (1951)193: 265-275).
The necessary doses of gliotoxin required to kill rat hepatic stellate cells and hepatocytes were compared. Culture-activated (14-day) rat hepatic stellate cells or rat hepatocytes were treated with either 0.05% (vol/vol) DMSO or 1.5 μmol/L gliotoxin and cell attachment determined by direct assay of protein in each well after four hours as outlined in Materials and Methods. The results obtained are depicted in FIG. 3A and are expressed as the mean and standard deviation percentage attachment versus DMSO control for three separate experiments.

[2] = Pilot study for gliotoxin toxicity in rats; assay type: in vivo, rat; conditions: 3 mg/kg body weight
[3] = system: intracellular Ca2+ in rat hepatic stellate cells; assay: Confocal microscopy of fluo-3 (intracellular calcium); assay type: cell-based; conditions: 1.5 μmol/L gliotoxin
Description: Intracellular calcium concentrations were examined by preloading activated hepatic stellate cells seeded onto 35-mm diameter dishes with 2.5 μmol/L Fluo-3AM for two hours. Mitochondrial integrity was determined by coloading cells with […] TMRM and 1 μmol/M calcein-AM for three hours. After loading, the culture medium was removed and the cells were washed extensively with confocal buffer (145 mmol/L NaCl, 5 mml/L KCl, 1 mmol/L MgSO4, 1 mmol/L NaH2PO4, 10 mmol/L HEPES, 25 mmol/L glucose, 1 mmol/L CaCl2 and 2 mg/mL bovine serum albumin, pH 7.4) and incubated at 37° C. in 2 mL confocal buffer containing 1.5 μmol/L gliotoxin or DMSO vehicle control.
Fluo-3 and calcein fluorescence were excited at 488 nm and collected at 515-530 nm using a band width filter. TMRM was excited at 543 nm and collected at wavelengths greater than 570 nm.
MPT results in futile Ca^2+ cycling by mitochondria, which enhances the likelihood of cell death (Crompton et al., Biochem. J. (1999) 341: 233-249). The role of the MPT in the late events of gliotoxin apoptosis was also therefore assessed by measuring intracellular calcium levels. Culture-activated (14-day) rat hepatic stellate cells in six-well plates were loaded with fluo-3 and fluorescence imaged as outlined in the Materials and methods section after treatment with DMSO control or 1.5 μmol/L gliotoxin.

[4] = system: hepatic stellate cells; assay: Nerve growth factor induced apoptosis of hepatic stellate cells; assay type: cell-based; conditions: NGF 100 ng/ml, serum-free; TIMP-1 142.5 ng/ml
Description: Apoptosis of hepatic stellate cells was induced by absolute serum deprivation, cycloheximide treatment (Issa et al., Gut (2001) 48: S48-S57), or exposure to nerve growth factor as previously described (Trim et al., Am. J. Pathol., (2000) 156, 1235-1243). Hepatic stellate cells were cultured in 24-well tissue culture plates. Rat and human hepatic stellate cells were exposed to proapoptotic stimuli with and without recombinant TIMP-1 (Biogenesis, Poole, UK) and other manipulations as detailed below. Following a 4 hour incubation at 37° C., nuclear morphology was assessed by adding acridine orange to each well (final concentration 1 μg/ml) and observing the cells under blue fluorescence. The total number of apoptotic bodies was counted, and any apoptotic bodies floating in the supernatant were included by racking up the objective lens. The total number of cells per field was counted, and an apoptotic index was calculated. Each condition was performed in duplicate, and three high power fields were counted for each well. […] To examine for autocrine effects, hepatic stellate cells were incubated for 18 hours with azide-free polyclonal neutralizing antibodies to TIMP-1 and a nonimmune IgG control (Santa Cruz Biotechnology, Inc., Santa Cruz, Calif.), and responses were assessed by acridine orange staining and counting. […]

[5] = system: caspase-3 activity in hepatic stellate cells; assay: Caspase-3 activity in cycloheximide-treated hepatic stellate cells; assay type: cell-based; conditions: 50 μM cycloheximide
Description: Apoptosis was quantified by a colorimetric assay for caspase-3 activity (Promega) according to the manufacturer's instructions.
Caspase-3 is a central caspase in the proapoptotic cascade (Hengartner, Nature (2000) 407, 770-776) and can be used as an alternative assay to assess apoptosis. Hepatic stellate cells were cultured in 50 μM cycloheximide with TIMP-1 at a concentration of 0, 1, 10, or 100 ng/ml. Controls where cells were incubated with either the caspase 3 inhibitor benzyloxycarbonyl-Val-Ala-Asp-fluoromethylketone or serum alone were also performed. Data are expressed as mean ±S.E. and are presented as percentage of control given the arbitrary value of 100%. * indicates p<0.001; n=3. […] Although the mean caspase-3 activity of the cells treated with 10 ng/ml TIMP-1 was slightly lower than that treated with 100 ng/ml of TIMP-1, this was not statistically significant (p=0.67 by Student's t test).

Molecule | higher concentrations required to kill rat hepatocytes in comparison to rat hepatic stellate cells [1] | apparent ill effects [2] | hepatic damage on histologic sections of the liver [2] | intracellular Ca2+ levels [3] | apoptosis induced by exposure to NGF [4] | reduction in caspase-3 activity ([5]; TIMP-1 10 ng/ml) | reduction in apoptosis measured by caspase-3 activity ([5]; TIMP-1 100 ng/ml) | caspase-3 activity ([5]; TIMP-1 1-100 ng/ml)
CN1C(=O)[C@]23CC4=CC=C[C@H](O)[C@H]4N2C(=O)[C@@]1(CO)SS3 [gliotoxin] | 10 to 100 fold | did not cause any apparent ill effects in rats | no evidence of hepatic damage | do not rise until two hours of incubation |  |  |  | 
TIMP-1: recombinant tissue inhibitor of matrix metalloproteases 1 (Biogenesis) |  |  |  |  | significantly inhibited | 50% | 50% | dose-dependent reduction in caspase-3 activity
